Patent US20230302150A1, “ANTIBODY-TLR AGONIST CONJUGATES, METHODS AND USES THEREOF” (Ambrx, Inc., priority 2020, published 2023)
Where two headings read alike, the source gives them in different places.

Target: T1, hTLR7 (Homo sapiens, UniProt Q9NYK1)
T1 construct: expressed in transfected cells; host or cells: HEK-Blue hTLR7 reporter cell line
T1 sequence (Q9NYK1 27-1049): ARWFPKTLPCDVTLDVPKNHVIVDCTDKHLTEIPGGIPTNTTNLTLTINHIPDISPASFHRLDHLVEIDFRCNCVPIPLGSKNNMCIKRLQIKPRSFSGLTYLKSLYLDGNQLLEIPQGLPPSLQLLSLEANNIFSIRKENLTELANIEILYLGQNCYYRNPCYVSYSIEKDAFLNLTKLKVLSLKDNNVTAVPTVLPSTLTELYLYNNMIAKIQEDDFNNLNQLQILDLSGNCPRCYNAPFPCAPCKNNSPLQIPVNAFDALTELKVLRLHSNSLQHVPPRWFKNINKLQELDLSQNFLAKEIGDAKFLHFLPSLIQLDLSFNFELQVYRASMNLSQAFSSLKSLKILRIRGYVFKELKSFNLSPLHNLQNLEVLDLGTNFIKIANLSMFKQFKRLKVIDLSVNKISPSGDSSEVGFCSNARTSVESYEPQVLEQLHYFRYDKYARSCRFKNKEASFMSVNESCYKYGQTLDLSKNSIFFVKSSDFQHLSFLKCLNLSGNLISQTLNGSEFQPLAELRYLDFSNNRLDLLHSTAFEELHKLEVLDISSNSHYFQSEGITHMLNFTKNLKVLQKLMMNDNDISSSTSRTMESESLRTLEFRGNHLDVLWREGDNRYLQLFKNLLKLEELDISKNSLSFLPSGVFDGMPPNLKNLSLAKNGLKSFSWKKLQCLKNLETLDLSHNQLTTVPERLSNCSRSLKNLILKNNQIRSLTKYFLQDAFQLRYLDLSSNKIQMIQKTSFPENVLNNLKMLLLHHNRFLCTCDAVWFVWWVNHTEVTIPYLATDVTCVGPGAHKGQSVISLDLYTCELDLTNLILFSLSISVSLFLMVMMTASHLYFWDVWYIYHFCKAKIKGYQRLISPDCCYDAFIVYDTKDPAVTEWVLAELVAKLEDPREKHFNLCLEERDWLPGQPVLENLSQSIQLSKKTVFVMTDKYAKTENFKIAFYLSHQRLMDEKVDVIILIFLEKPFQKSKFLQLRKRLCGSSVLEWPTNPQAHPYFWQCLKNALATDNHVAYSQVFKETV
Test: HEK-Blue hTLR7 reporter assay (NF-kB-induced SEAP, Quanti-Blue)
Assay type: cell-based
Procedure: HEK-Blue™ hTLR7 cells were incubated in HEK-Blue™ Detection medium and stimulated with increasing concentrations of TLR7 or TLR8 or TLR7/8 agonists. […] The EC50 was determined from dose-response curve using Prism Software.

[1] = Table 12, TLR7 agonists attached to a linker, read-out: TLR Agonist Payload + Linkers EC50
[2] = Table 15, drug linker, read-out: TLR Agonist + Linker (DL) - EC50
[3] = Table 15, pAF containing final metabolite, read-out: TLR Agonist + Linker + nnAA (DL-pAF) - EC50
[4] = Table 11, TLR7 activities, read-out: EC50

With CCCCc1nc2c(N)nc3ccccc3c2n1CCCCNC(=O)c1ccc(N)c(OC)c1 [AXC-725, 4-amino-N-(4-(4-amino-2-butyl-1H-imidazo[4,5-c]quinolin-1-yl)butyl)-3-methoxybenzamide] the EC50 (Table 10, read-out: TLR7 EC50) was 249 nM.
CCCCc1nc2c(N)nc3cccnc3c2n1CCCCNC(=O)c1cnccn1 [AXC-732, N-(4-(4-amino-2-butyl-1H-imidazo[4,5-c][1,5]naphthyridin-1-yl)butyl)pyrazine-2-carboxamide] gave an EC50 (Table 10, read-out: TLR7 EC50) of 256 nM.
CCCCc1nc2c(N)nc3cccnc3c2n1CCCCNC(=O)c1ccc(N)c(OC)c1 [AXC-736, 4-amino-N-(4-(4-amino-2-butyl-1H-imidazo[4,5-c][1,5]naphthyridin-1-yl)butyl)-3-methoxybenzamide] showed an EC50 (Table 10, read-out: TLR7 EC50) of 213 nM.
Work on CCc1nc2c(N)nc3ccccc3c2n1CCCCNC(=O)c1ccc(N(C)C)cc1 [AXC-738, N-(4-(4-amino-2-ethyl-1H-imidazo[4,5-c]quinolin-1-yl)butyl)-4-(dimethylamino)benzamide] yielded an EC50 (Table 10, read-out: TLR7 EC50) of 11.1 nM.
CCc1nc2c(N)nc3ccccc3c2n1CCCCNC(=O)/C=C/c1ccc(N(C)C)cc1 [AXC-739, (E)-N-(4-(4-amino-2-ethyl-1H-imidazo[4,5-c]quinolin-1-yl)butyl)-3-(4-(dimethylamino)phenyl)acrylamide] showed an EC50 (Table 10, read-out: TLR7 EC50) of 28.2 nM.
For CCCCc1nc2c(N)nc3ccccc3c2n1CCCCNC(=O)c1ccc(N(C)C)cc1 [AXC-740, N-(4-(4-amino-2-butyl-1H-imidazo[4,5-c]quinolin-1-yl)butyl)-4-(dimethylamino)benzamide], the EC50 (Table 10, read-out: TLR7 EC50) was 116 nM.
CCCCc1nc2c(N)nc3cccnc3c2n1CCCCNC(=O)c1ccc(N(C)C)cc1 [AXC-743, N-(4-(4-amino-2-butyl-1H-imidazo[4,5-c][1,5]naphthyridin-1-yl)butyl)-4-(dimethylamino)benzamide] was tested, and the EC50 (Table 10, read-out: TLR7 EC50) was 56.1 nM.
Compound CCCCc1nc2c(N)nc3ccccc3c2n1CCCCNC(=O)c1ccc(N2CCCC2)cc1 [AXC-777, N-(4-(4-amino-2-butyl-1H-imidazo[4,5-c]quinolin-1-yl)butyl)-4-(pyrrolidin-1-yl)benzamide] has an EC50 (Table 10, read-out: TLR7 EC50) of 910 nM.
Work on CCCCc1nc2c(N)nc3ccccc3c2n1CCCCNC(=O)c1ccc(N)c(F)c1 [AXC-778, 4-amino-N-(4-(4-amino-2-butyl-1H-imidazo[4,5-c]quinolin-1-yl)butyl)-3-fluorobenzamide] yielded an EC50 (Table 10, read-out: TLR7 EC50) of 83.3 nM.
CCCCc1nc2c(N)nc3ccccc3c2n1CCCCNC(=O)c1cc(F)c(N)c(F)c1 [AXC-779, 4-amino-N-(4-(4-amino-2-butyl-1H-imidazo[4,5-c]quinolin-1-yl)butyl)-3,5-difluorobenzamide] was tested, and the EC50 (Table 10, read-out: TLR7 EC50) was 242 nM.
In the case of CCCCc1nc2c(N)nc3ccccc3c2n1CCCCNC(=O)c1cc(F)c(NC(=O)[C@H](C)NC(=O)CON)c(F)c1 [AXC-800, (S)—N-(4-(4-amino-2-butyl-1H-imidazo[4,5-c]quinolin-1-yl)butyl)-4-(2-(2-(aminooxy)acetamido)propanamido)-3,5-difluorobenzamide], the EC50 (Table 10, read-out: TLR7 EC50) is reported as greater than 5000 nM.
CCCCc1nc2c(N)nc3ccccc3c2n1CCCCNC(=O)c1cc(F)c(NC(=O)[C@H](CCCNC(N)=O)NC(=O)[C@@H](NC(=O)CON)C(C)C)c(F)c1 [AXC-801, N-(4-(4-amino-2-butyl-1H-imidazo[4,5-c]quinolin-1-yl)butyl)-4-((S)-2-((S)-2-(2-(aminooxy)acetamido)-3-methylbutanamido)-5-ureidopentanamido)-3,5-difluorobenzamide] was tested, and the EC50 (Table 10, read-out: TLR7 EC50) was greater than 5000 nM.
With CCCCc1nc2c(N)nc3ccccc3c2n1CCCCNC(=O)c1cc(F)c(NC(=O)[C@H](CCCNC(N)=O)NC(=O)[C@@H](NC(=O)CCOCCON)C(C)C)c(F)c1 [AXC-802, N-(4-(4-amino-2-butyl-1H-imidazo[4,5-c]quinolin-1-yl)butyl)-4-((S)-2-((S)-2-(3-(2-(aminooxy)ethoxy)propanamido)-3-methylbutanamido)-5-ureidopentanamido)-3,5-difluorobenzamide] the EC50 (Table 10, read-out: TLR7 EC50) was greater than 5000 nM.
Compound CCCCc1nc2c(N)nc3ccccc3c2n1CCCCNC(=O)c1cccc(N)c1 [AXC-803, 3-amino-N-(4-(4-amino-2-butyl-1H-imidazo[4,5-c]quinolin-1-yl)butyl)benzamide] has an EC50 (Table 10, read-out: TLR7 EC50) of 332 nM.
In the case of CCCCc1nc2c(N)nc3ccccc3c2n1CCCCNC(=O)c1ccc(F)c(N)c1 [AXC-804, 3-amino-N-(4-(4-amino-2-butyl-1H-imidazo[4,5-c]quinolin-1-yl)butyl)-4-fluorobenzamide], the EC50 (Table 10, read-out: TLR7 EC50) is reported as 260 nM.
CCCCCNc1nc(N)nc2ccn(Cc3cc(CN4CCN(CCCNC(=O)CON)CC4)ccc3OC)c12 [AXC-860, reference compound] was tested, and the EC50 (Table 14, read-out: TLR7 EC50) was 120 nM.
For CCCCOc1nc(N)c2[nH]c(=O)n(Cc3ccc(CNC(=O)CON)cc3)c2n1 [AXC-862], the EC50 [1] was 400 nM, the EC50 [2] was 400 nM and the EC50 [3] was 121 nM.
CCCCNc1nc(N)c2[nH]c(=O)n(Cc3ccc(N4CCN(CCNC(=O)CON)CC4)nc3)c2n1 [AXC-867] was tested, and the EC50 [1] was 829 nM, the EC50 [2] was 829 nM and the EC50 [3] was 283 nM.
In the case of CCCCNc1nc(N)c2[nH]c(=O)n(Cc3ccc(NCCN(C)CCNC(=O)CCOCCOCCOCCOCCON)nc3)c2n1 [AXC-869, NH2O-PEG3-Pr-(6-amino-9-((6-(2-((2-aminoethyl)(methyl)amino)ethylamino)pyridin-3-yl)methyl)-2-(butylamino)-7H-purin-8(9H)-one)acetamide], the EC50 [1] is reported as greater than 10000 nM.
CCCCOc1nc(N)c2[nH]c(=O)n(Cc3ccc(N4CCC(CCNC(=O)CCOCCON)CC4)nc3)c2n1 [AXC-876, N-(2-(1-(5-((6-amino-2-butoxy-8-oxo-7H-purin-9(8H)-yl)methyl)pyridin-2-yl)piperidin-4-yl)ethyl)-3-(2-(aminooxy)ethoxy)propanamide] gave an EC50 [1] of 362 nM, an EC50 [2] of 362 nM and an EC50 [3] of 245 nM.
Compound CCCCOc1nc(N)c2[nH]c(=O)n(Cc3ccc(CN4CCC(CCNC(=O)OC(C)(C)C)CC4)cc3)c2n1 [AXC-877, tert-butyl 2-(1-(4-((6-amino-2-butoxy-8-oxo-7,8-dihydro-9H-purin-9-yl)methyl)benzyl)piperidin-4-yl)ethylcarbamate] has an EC50 [4] of 5.5 nM and an EC50 (text to Table 11, TLR7, read-out: EC50) of less than 10 nM.
For CCCCOc1nc(N)c2[nH]c(=O)n(Cc3ccc(CN4CCC(CCN)CC4)cc3)c2n1 [AXC-878, 6-amino-9-(4-((4-(2-aminoethyl)piperidin-1-yl)methyl)benzyl)-2-butoxy-7H-purin-8(9H)-one], the EC50 [4] was 50.4 nM.
CCCCOc1nc(N)c2[nH]c(=O)n(Cc3ccc(CN4CCC(CCNC(=O)CCOCCON)CC4)cc3)c2n1 [AXC-880, N-(2-(1-(4-((6-amino-2-butoxy-8-oxo-7H-purin-9(8H)-yl)methyl)benzyl)piperidin-4-yl)ethyl)-3-(2-(aminooxy)ethoxy)propenamide] gave an EC50 [1] of 410 nM, an EC50 [2] of 410 nM and an EC50 [3] of 167 nM.
Work on CCCCOc1nc(N)c2[nH]c(=O)n(Cc3ccc(CNCCCCCCN)cc3)c2n1 [AXC-881, 6-amino-9-(4-((6-aminohexylamino)methyl)benzyl)-2-butoxy-7H-purin-8(9H)-one] yielded an EC50 [4] of 87.3 nM.
With CCCCOc1nc(N)c2[nH]c(=O)n(Cc3ccc(CNCCCCCCNC(=O)CON)cc3)c2n1 [AXC-882, N-(6-(4-((6-amino-2-butoxy-8-oxo-7H-purin-9(8H)-yl)methyl)benzylamino)hexyl)-2-(aminooxy)acetamide] the EC50 [1] was 551 nM, the EC50 [2] was 551 nM and the EC50 [3] was 343 nM.
CCCCOc1nc(N)c2[nH]c(=O)n(Cc3ccc(CN4CCC(CCNC(=O)C(C)(C)NC)CC4)cc3)c2n1 [AXC-884, N-(2-(1-(4-((6-amino-2-butoxy-8-oxo-7H-purin-9(8H)-yl)methyl)benzyl)piperidin-4-yl)ethyl)-2-methyl-2-(methylamino)propanamide] gave an EC50 [4] of 71.3 nM.
CCCCOc1nc(N)c2[nH]c(=O)n(Cc3ccc(CN4CCC(CCNC(=O)C(C)(C)C)CC4)cc3)c2n1 [AXC-885, N-(2-(1-(4-((6-amino-2-butoxy-8-oxo-7H-purin-9(8H)-yl)methyl)benzyl)piperidin-4-yl)ethyl)pivalamide] showed an EC50 [4] of 11.3 nM.
CCCCOc1nc(N)c2[nH]c(=O)n(Cc3ccc(CN4CCC(CCNC(C)=O)CC4)cc3)c2n1 [AXC-886, N-(2-(1-(4-((6-amino-2-butoxy-8-oxo-7H-purin-9(8H)-yl)methyl)benzyl)piperidin-4-yl)ethyl)acetamide] was tested, and the EC50 [4] was 16.7 nM.
